Values joined by “and” are separate entries in the source; they are usually repeats but may differ in a detail not shown here. Equal values may be shown once. Read-outs that look alike come from different tables or passages of the source.
Legend:
recombinant human MAO-B = recombinant human MAO-B (Homo sapiens, UniProt P27338); experiment: MAO-B fluorometric assay (kynuramine); assay type: biochemical; details: for IC50: kynuramine 30 µM, 37 °C, read-out: MAO-B IC50
Experimental: . The stock was then further diluted by factors of ten to produce solutions of 1 mM, 100 µM, 10 µM, 1 µM, and 0.1 µM which would correspond to concentrations of 100 µM, 10 µM, 1 µM, 0.1 µM, and 0.01 µM in the final reaction mixture. A potassium phosphate buffer ([…] 100 mM, pH 7.4, 0.9% w/v NaCl) was prepared and refrigerated until further use. The enzyme stock solutions were prepared by dissolving 2.5 mg of enzyme in 33.33 ml of phosphate buffer to produce stock solutions of 0.075 mg/ml which were stored in aliquots at −80 °C until use. […]. The substrate was prepared by dissolving kynuramine in potassium buffer and was prepared as two separate concentrations; […]. The fresh substrate was prepared on the day of the assay. The assay was carried out in 2 ml Eppendorf vials. […] Following this, 25 µl of the enzyme stock were added to each vial in 10 s intervals and the vials were incubated at 37 °C for 10 min. After this time period 15 µl of kynuramine (750 µM for MAO-A and 500 µM for MAO-B) was added at 10 s intervals and further incubated for 20 min. To stop the reaction at the end of this time 150 hx00B5;l of 2 N NaOH was added and the mixture was shaken. Using a micropipette 80 hx00B5;l of the mixture was transferred to a well in a black 96 well plate. The plate was placed in the fluorescent plate reader and read at an excitation/emission wavelength of 310 nm/410 nm. Each assay was run in triplicate and the data were analysed with Graph Pad Prism 8 software (San Diego, USA).
The MAO inhibitory activity of the compounds was assessed using a fluorometric assay with recombinant human MAO-A and human MAO-B enzymes. […].

[1] = system: MPP+-compromised SH-SY5Y neuroblastoma cells; assay type: cell-based, human; details: 10 µM compound, 2000 µM MPP+; for MPP+ neuroprotection (difference in percentage cell viability vs MPP+ only treated cells): 2 h pre-treatment, 24 h, SH-SY5Y; for survival rate of MPP+-treated cells: untreated control = 100%
Experimental: SH-SY5Y cells were seeded onto a 96-well plate in a growth medium at a density of 10,000 cells/well. Cells were pre-treated with test compounds at a concentration of 10 µM and thereafter 2000 µM MPP^+ following a 2-h incubation period. Afterwards, cells were incubated for 24 h and MTT colorimetric assay was used to measure cell viability relative to untreated control. To determine the data’s statistical significance, the One-way ANOVA Turkey’s multiple comparison test was conducted on all experimental replicates using GraphPad Prism® 8 (San Diego, USA).
The SH-SY5Y cells were pre-treated with 10 µM of the test compounds for 2 h followed by the addition of 2000 µM of MPP^+.

BuChE from equine serum = biological target: T1, BuChE from equine serum (Equus caballus, UniProt P81908); experiment: biochemical
T1 construct: 12 U/ml BuChE from equine serum; from tissue; host or cells: equine serum
Experimental: (§1) Cholinesterase activity is determined using a modified colorimetric method first described by Ellman[40]. […] The stock was then further diluted by factors of ten to produce solutions of 1 mM, 100 µM, 10 µM, 1 µM, and 0.1 µM which corresponds to concentrations of 100 µM, 10 µM, 1 µM, 0.1 µM, and 0.01 µM in the final reaction mixture. The test concentrations were stored in the refrigerator until the day of the assay. Trisma HCl buffer (50 mM, adjusted to pH 8 with 2 N NaOH) was prepared as the buffer and used to prepare enzyme stock solution (22 U/ml for Electrophorus electricus AChE and 12 U/ml BuChE from equine serum), 15 mM acetylthiocholine iodide, 15 mM S-butyrylthiocholine iodide and 1.5 mM DTNB (Ellman’s reagent). The enzyme stock solution was stabilised with 1% bovine serum albumin and stored in aliquots at −80 °C. A clear, flat bottom 96 well plate was used to perform the experiments with each concentration performed in triplicate. Prior to the assay the background absorbance for each compound at the different test concentrations was measured and accounted for when reading the final absorbance. […] Following this, 30 µl of the substrate was added to each well simultaneously using a multi pipette. […] A one-sample t-test was performed on the data to test for statistical significance.

[2] = biological target: Electrophorus electricus AChE (Electrophorus electricus, UniProt O42275); experiment: biochemical; details: for IC50: 25 °C, pH 8
Experimental: as §1

[3] = Ellman method, 25 °C, pH 8, read-out: BuChE IC50
[4] = Ellman method, read-out: AChE IC50

Sequence of Electrophorus electricus AChE (O42275 24-633): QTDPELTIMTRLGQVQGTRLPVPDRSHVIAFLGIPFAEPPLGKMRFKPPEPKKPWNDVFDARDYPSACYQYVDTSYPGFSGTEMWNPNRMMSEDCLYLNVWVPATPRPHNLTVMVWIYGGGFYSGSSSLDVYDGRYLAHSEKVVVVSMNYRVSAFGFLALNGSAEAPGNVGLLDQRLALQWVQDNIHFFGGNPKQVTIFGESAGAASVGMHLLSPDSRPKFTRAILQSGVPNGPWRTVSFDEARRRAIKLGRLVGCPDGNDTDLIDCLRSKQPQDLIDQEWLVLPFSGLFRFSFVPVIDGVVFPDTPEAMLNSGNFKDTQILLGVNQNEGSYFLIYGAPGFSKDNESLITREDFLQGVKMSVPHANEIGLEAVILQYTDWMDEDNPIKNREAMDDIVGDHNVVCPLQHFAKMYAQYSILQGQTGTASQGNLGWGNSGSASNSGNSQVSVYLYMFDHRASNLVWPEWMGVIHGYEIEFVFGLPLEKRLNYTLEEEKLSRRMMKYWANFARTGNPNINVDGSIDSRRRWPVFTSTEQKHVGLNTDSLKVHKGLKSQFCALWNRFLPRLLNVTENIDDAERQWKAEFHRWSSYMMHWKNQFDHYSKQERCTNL
T1 sequence (P81908 whole entry): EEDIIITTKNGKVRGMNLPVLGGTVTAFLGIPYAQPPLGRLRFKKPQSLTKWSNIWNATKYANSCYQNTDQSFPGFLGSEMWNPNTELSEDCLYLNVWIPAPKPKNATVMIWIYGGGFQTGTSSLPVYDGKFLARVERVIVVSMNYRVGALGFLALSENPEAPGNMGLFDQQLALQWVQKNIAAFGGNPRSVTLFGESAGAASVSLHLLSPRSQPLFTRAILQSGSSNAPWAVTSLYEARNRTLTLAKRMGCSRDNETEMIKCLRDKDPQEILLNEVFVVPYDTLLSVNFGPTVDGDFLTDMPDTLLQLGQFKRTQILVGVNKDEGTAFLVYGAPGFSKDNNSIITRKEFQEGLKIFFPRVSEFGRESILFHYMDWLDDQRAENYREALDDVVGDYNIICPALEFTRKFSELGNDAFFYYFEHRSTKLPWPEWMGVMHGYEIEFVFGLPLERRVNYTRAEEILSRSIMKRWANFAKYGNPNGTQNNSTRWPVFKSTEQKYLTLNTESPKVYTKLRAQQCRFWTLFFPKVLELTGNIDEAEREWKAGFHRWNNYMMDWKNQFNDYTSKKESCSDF
Sequence of recombinant human MAO-B (P27338 whole entry): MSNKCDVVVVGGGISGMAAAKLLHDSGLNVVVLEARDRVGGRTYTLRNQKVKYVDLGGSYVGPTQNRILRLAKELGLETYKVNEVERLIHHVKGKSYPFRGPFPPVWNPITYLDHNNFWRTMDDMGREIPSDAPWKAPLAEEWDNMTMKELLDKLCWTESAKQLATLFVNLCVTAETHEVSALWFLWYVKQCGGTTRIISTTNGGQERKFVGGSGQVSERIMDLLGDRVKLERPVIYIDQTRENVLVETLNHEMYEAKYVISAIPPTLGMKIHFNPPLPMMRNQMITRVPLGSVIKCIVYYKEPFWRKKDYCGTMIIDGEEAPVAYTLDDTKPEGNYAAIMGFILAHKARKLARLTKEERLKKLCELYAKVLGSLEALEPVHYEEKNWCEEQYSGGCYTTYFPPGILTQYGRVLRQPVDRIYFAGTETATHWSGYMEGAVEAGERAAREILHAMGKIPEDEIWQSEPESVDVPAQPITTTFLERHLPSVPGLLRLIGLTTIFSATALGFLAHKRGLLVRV

Row | Structure (SMILES) | IC50 (recombinant human MAO-B) [µM] | MPP+ neuroprotection (difference in percentage cell viability vs MPP+ only treated cells) [1] [%] | IC50 (BuChE from equine serum; [3]) [µM] | IC50 [2, 4] | SI MAO-B (MAO-B selectivity index = IC50(MAO-A)/IC50(MAO-B)) (recombinant human MAO-B) | survival rate of MPP+-treated cells [1] [%] | inhibition at 100 µM ([2]; at 100 µM, read-out: AChE enzyme inhibition) [%] | IC50 (BuChE from equine serum) [µM] | IC50 ([2]; AChE IC50, Ellman method) [µM]
1 | O=c1oc2cc(OCCc3ccccc3)ccc2cc1CBr [Compound 4, 3-(bromomethyl)-7-(2-phenylethoxy)-2H-1-benzopyran-2-one] | > 100 | 22.11 | > 100 | > 100 µM | – | – | – | – | –
2 | C#CCNCc1cc2ccc(OCCc3ccccc3)cc2oc1=O [Compound 6, 7-(2-phenylethoxy)-3-{[(prop-2-yn-1-yl)amino]methyl}-2H-1-benzopyran-2-one] | 0.029 | 35.96 | > 100 | > 100 µM | 133.2 | 92 | – | – | –
3 | CCN(CC)C(=O)Oc1ccc2cc(CBr)c(=O)oc2c1 [Compound 5, 3-(bromomethyl)-2-oxo-2H-1-benzopyran-7-yl-diethylcarbamate] | 0.333 | 21.86 | 23.3 | ~108 µM and 108 µM | 1.05 | – | 49 | – | –
4 | C#CCNCc1cc2ccc(OC(=O)N(CC)CC)cc2oc1=O [Compound 7, 2-oxo-3-{[(prop-2-yn-1-yl)amino]methyl}-2H-1-benzopyran-7-yl-diethylcarbamate] | 0.101 | 28.19 | – | – | 205.9 | 85 | – | > 100 | > 100
